What is called Km is the concentration of substrate that gives half-maximal velocity. The kcat is the maximal rate divided by the concentration of active sites.

The experiment deals with T1, purified human α2M (Homo sapiens, UniProt P01023).
T1 sequence (P01023 24-1474): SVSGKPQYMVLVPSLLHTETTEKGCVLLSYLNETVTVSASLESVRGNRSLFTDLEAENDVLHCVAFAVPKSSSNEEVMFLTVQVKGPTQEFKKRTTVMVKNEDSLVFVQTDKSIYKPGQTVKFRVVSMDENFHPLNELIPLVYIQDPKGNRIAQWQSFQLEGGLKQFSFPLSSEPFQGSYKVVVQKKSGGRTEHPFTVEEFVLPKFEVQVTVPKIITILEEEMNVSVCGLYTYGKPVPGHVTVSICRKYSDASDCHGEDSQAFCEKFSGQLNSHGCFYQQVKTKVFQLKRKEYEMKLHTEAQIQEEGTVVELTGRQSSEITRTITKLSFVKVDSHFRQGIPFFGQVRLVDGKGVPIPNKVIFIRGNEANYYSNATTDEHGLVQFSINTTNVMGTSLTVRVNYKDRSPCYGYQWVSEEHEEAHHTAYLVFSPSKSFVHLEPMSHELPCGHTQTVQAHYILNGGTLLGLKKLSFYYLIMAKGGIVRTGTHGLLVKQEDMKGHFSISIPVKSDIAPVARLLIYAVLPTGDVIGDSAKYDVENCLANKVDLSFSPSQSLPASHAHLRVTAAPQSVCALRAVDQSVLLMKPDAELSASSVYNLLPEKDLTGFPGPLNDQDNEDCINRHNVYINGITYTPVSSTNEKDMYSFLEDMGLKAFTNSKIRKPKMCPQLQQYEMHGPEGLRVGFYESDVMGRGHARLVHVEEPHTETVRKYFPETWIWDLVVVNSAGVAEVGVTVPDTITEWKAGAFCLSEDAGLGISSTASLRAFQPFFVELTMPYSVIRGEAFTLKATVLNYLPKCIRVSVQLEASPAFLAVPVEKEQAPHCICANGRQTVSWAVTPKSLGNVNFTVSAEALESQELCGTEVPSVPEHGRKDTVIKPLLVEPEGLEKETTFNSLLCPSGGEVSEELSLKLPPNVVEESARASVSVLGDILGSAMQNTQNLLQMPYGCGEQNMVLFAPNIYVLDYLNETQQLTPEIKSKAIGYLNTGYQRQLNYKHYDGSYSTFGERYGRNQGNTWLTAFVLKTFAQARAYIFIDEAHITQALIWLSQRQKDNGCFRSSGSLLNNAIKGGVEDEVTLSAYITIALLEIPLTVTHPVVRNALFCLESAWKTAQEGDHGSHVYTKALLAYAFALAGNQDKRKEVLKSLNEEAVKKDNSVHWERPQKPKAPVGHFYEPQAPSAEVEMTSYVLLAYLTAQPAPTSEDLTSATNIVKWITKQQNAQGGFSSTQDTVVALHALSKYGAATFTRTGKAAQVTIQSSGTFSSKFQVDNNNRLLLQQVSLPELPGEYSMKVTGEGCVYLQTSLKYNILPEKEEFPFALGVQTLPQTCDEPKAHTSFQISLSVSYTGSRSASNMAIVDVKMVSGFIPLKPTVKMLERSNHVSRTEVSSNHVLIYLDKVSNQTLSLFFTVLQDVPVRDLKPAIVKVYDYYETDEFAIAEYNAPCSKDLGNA
It counts as biochemical.

Like-named read-outs stand apart in the source and are kept apart here. Ends that are not written are not given here. MCA = 7-methoxycoumarin-4-acetic acid

Consider `O=[N+]([O-])c1ccc(OP(=O)(O)Oc2ccc([N+](=O)[O-])cc2)cc1` [BNPP, bis-p-nitrophenyl-phosphate], for which the “inhibition of α2M deacylating activity” value turned out to be 40%. Further, the “inhibition of α2M deacylating activity” value (100 µM) is given as 0%.

In the case of “ghrelin-MCA: full length acylated ghrelin containing the fluorophore 7-methoxycoumarin-4-acetic acid (MCA) at the C-terminus (GSSFLSPEHQRVQQRKESKKPPAKLQPR-{MCA}; also: octanoyl acylated, position not given here; UniProt Q9UBU3 24-51, looked up)”, the Km was 24 ± 3 µM and the kcat was 0.000383 ± 1.7e-05 s⁻¹.

The record behind these values is publication PMC3515674 (Angewandte Chemie (International ed. in English), 2011).
